pEC50: −log10 of the molar value.
Assays:
Format in all cases: cell-based
[1] = test system: genotype 3a transient HCV replicon (S52) in Huh-7-derived cells; assay: Transient-transfected HCV replicon, genotype 3a wild type; details: Hepatitis C virus; transient-transfected replicon genotype 3a wild type, 72 h; read-out: EC50 3A WT
[2] = test system: genotype 1a (H77) wild-type transient HCV replicon in Huh-7-derived cells; assay: Transient-transfected HCV replicon, genotype 1a wild type; details: Hepatitis C virus; transient-transfected replicon genotype 1a wild type, 72 h; read-out: EC50 1A WT
[3] = test system: NS3/4a protease inhibitor resistant variant D168A in genotype 1b transient HCV replicon; assay: Transient-transfected HCV replicon, genotype 1b D168A; details: Hepatitis C virus, 72 h, read-out: EC50 1B D168A
[4] = test system: NS3/4a protease inhibitor resistant variant R155K in genotype 1a transient HCV replicon; assay: Transient-transfected HCV replicon, genotype 1a R155K; details: Hepatitis C virus, 72 h, read-out: EC50 1A R155K
[5] = test system: genotype 1b stable HCV replicon (Con1) in Huh-7-derived cells; assay: Stable subgenomic HCV replicon, genotype 1b, Renilla luciferase; details: Hepatitis C virus, stable replicon genotype 1b, 72 h, read-out: EC50 1B RLUC
Experimental: Antiviral potency (EC50) was determined in both stable subgenomic HCV replicon cell lines and transient-transfected HCV replicon cells. The term half maximal effective concentration (EC50) refers to the concentration of a drug which induces a response halfway between the baseline and maximum after the exposure time specified below.
Stable subgenomic HCV replicons for genotype 1a, 1b, 2a, 3a, and 4a were established in Huh-7-derived cells as described by Lohmann et al (Lohmann V, Korner F, Koch J, et al Replication of subgenomic hepatitis C virus RNAs in a hepatoma cell line. Science 1999; 285:119-3). Each stable cell line contains a bicistronic HCV replicon that encodes a humanized Renilla luciferase (hRLuc) reporter gene fused to a selectable neomycin-resistance gene, followed by an EMCV IRES and the NS3-NS5B coding region of HCV. […] Luciferase activity was measured as a marker for intracellular HCV replication levels.
The genotype 1a stable replicon was derived from the H77 HCV strain and contained adaptive mutations P1496L and S2204I. The genotype 1b stable replicon was derived from the Con1 HCV strain and contained adaptive mutations E1202G, T1280I, and K1846T. […] The genotype 3a stable replicon was derived from the S52 HCV strain and contained adaptive mutations P1121 L, A1198T and S2210I (equivalent to S2204I in genotype 1). The genotype 4a stable replicon was derived from the ED43 HCV strain and contained adaptive mutations Q1691R and S2204I. All replicon cell lines were propagated in Huh-7-derived cells and maintained in Dulbecco's modified Eagle's Medium (DMEM) supplemented with 10% fetal bovine serum (FBS) and 0.5 mg/ml G418.
To perform EC50 assays, cells from each HCV replicon were dispensed into 384-well plates. Compounds were dissolved in DMSO at a concentration of 10 mM and diluted in DMSO using an automated pipetting instrument. Three-fold serially diluted compounds were directly added to the cells using an automated instrument. DMSO was used as a negative (solvent; no inhibition) control, and a combination of three HCV inhibitors including a protease inhibitor; an NS5A inhibitor and a nucleoside inhibitor was used at concentrations >100×EC50 as a positive control (100% inhibition). Seventy-two hours later, cells were lysed and Renilla luciferase activity were quantified as recommended by the manufacturer (Promega-Madison, Wis.). Non-linear regression was performed to calculate […], values.

[6] = test system: genotype 1b wild-type transient HCV replicon in Huh-7-derived cells; assay: Transient-transfected HCV replicon, genotype 1b wild type; details: Hepatitis C virus; transient-transfected replicon genotype 1b wild type, 72 h; read-out: EC50 1B WT

Compound | pEC50 [1] | pEC50 [2] | pEC50 [3] | pEC50 [4] | pEC50 [5] | pEC50 [6]
CC(C)(C)[C@@H]1NC(=O)O[C@@H]2C[C@@H]3C[C@@H]3[C@H]2CCCCCc2nc3ccc4ccccc4c3nc2OC2C[C@@H](C(=O)N[C@]3(C(=O)NS(=O)(=O)C4(C)CC4)C[C@H]3C(F)F)N(C2)C1=O (stereo partly drawn) [Example 22, (33R,35S,91S,93R,94R,95S,5S)-5-(tert-butyl)-N-((1R,2R)-2-(difluoromethyl)-1-(((1-methylcyclopropyl)sulfonyl)carbamoyl)cyclopropyl)-4,7-dioxo-2,8-dioxa-6-aza-1(2,3)-benzo[f]quinoxalina-3(3,1)-pyrrolidina-9(3,4)-bicyclo[3.1.0]hexanacyclotetradecaphane-35-carboxamide] | 8.26 | 8.77 | 7.74 | 8.57 | 8.30 | 8.70
CC(C)(C)[C@@H]1NC(=O)O[C@@H]2C[C@@H]3C[C@@H]3[C@H]2CCCCCc2nc3ccc(C#N)cc3nc2O[C@@H]2C[C@@H](C(=O)N[C@]3(C(=O)NS(=O)(=O)C4(C)CC4)C[C@H]3C(F)F)N(C2)C1=O [Example 23, (33R,35S,91S,93R,94R,95S,5S)-5-(tert-butyl)-17-cyano-N-((1R,2R)-2-(difluoromethyl)-1-(((1-methylcyclopropyl)sulfonyl)carbamoyl)cyclopropyl)-4,7-dioxo-2,8-dioxa-6-aza-1(2,3)-quinoxalina-3(3,1)-pyrrolidina-9(3,4)-bicyclo[3.1.0]hexanacyclotetradecaphane-35-carboxamide] | 8.02 | 8.92 | 7.96 | 8.64 | 8.53 | 9.05
CC(C)(C)[C@@H]1NC(=O)O[C@@H]2C[C@@H]3C[C@@H]3[C@H]2CCCCCn2c(nc3ccccc3c2=O)O[C@@H]2C[C@@H](C(=O)N[C@]3(C(=O)NS(=O)(=O)C4(C)CC4)C[C@H]3C(F)F)N(C2)C1=O [Example 24, (1aS,2aR,6S,9S,11R,24aR,24bS)-6-tert-butyl-N-[(1R,2R)-2-(difluoromethyl)-1-{[(1-methylcyclopropyl)sulfonyl]carbamoyl}cyclopropyl]-4,7,18-trioxo-1a,2,2a,4,5,6,7,10,11,20,21,22,23,24,24a,24b-hexadecahydro-1H,9H,18H-8,11-methanocyclopropa[4′,5′]cyclopenta[1′,2′:18,19][1,10,3,6,12]dioxatriazacyclonona decino[11,12-b]quinazoline-9-carboxamide] | 8.12 | 8.77 | 8.48 | 8.82 | 8.52 | 9.10
CC(C)(C)[C@@H]1NC(=O)O[C@@H]2C[C@@H]3C[C@@H]3[C@H]2CCCCCn2c(nc3cc(C#N)ccc3c2=O)O[C@@H]2C[C@@H](C(=O)N[C@]3(C(=O)NS(=O)(=O)C4(C)CC4)C[C@H]3C(F)F)N(C2)C1=O [Example 25, (1aS,2aR,6S,9S,11R,24aR,24bS)-6-tert-butyl-15-cyano-N-[(1R,2R)-2-(difluoromethyl)-1-{[(1-methylcyclopropyl)sulfonyl]carbamoyl}cyclopropyl]-4,7,18-trioxo-1a,2,2a,4,5,6,7,10,11,20,21,22,23,24,24a,24b-hexadecahydro-1H,9H,18H-8,11-methanocyclopropa[4′,5′]cyclopenta[1′,2′:18,19][1,10,3,6,12]dioxatriazacyclonona decino[11,12-b]quinazoline-9-carboxamide] | 8.12 | 8.74 | 8.36 | 8.70 | 8.56 | 9.15
COc1ccc2c(=O)n3c(nc2c1)O[C@@H]1C[C@@H](C(=O)N[C@]2(C(=O)NS(=O)(=O)C4(C)CC4)C[C@H]2C(F)F)N(C1)C(=O)[C@H](C(C)(C)C)NC(=O)O[C@@H]1C[C@@H]2C[C@@H]2[C@H]1CCCCC3 [Example 26, (1aS,2aR,6S,9S,11R,24aR,24bS)-6-tert-butyl-N-[(1R,2R)-2-(difluoromethyl)-1-{[(1-methylcyclopropyl)sulfonyl]carbamoyl}cyclopropyl]-15-methoxy-4,7,18-trioxo-1a,2,2a,4,5,6,7,10,11,20,21,22,23,24,24a,24b-hexadecahydro-1H,9H,18H-8,11-methanocyclopropa[4′,5′]cyclopenta[1′,2′:18,19][1,10,3,6,12]dioxatriazacyclonona decino[11,12-b]quinazoline-9-carboxamide] | 8.35 | 9.10 | 9.05 | 9.00 | 8.74 | 9.40

Reference: patent US9617310B2 (priority 2013, dated 2017)
